The supplement of paper PMC10307832

How the values were obtained:
Test in all cases: relative viability (nuclei count vs DMSO), 5 days (fraction); higher = more cells survive
[1] = compound: Cc1ccc2nc(NCCN)c3ncc(C)n3c2c1 + Cc1nc(NC(=O)N2CCC[C@H]2C(N)=O)sc1-c1ccnc(C(C)(C)C(F)(F)F)c1 [Alpelisib] (partner 2 µM)
How it was run: (§1)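 Values are medians from duplicate plates. Each reflects relative viability, defined as the nuclei count of treated wells over that of vehicle wells. Lung cancer cell lines in 1536-well plates were pin-tool dosed one day after seeding with one drug alone or with a fixed anchor-drug dose plus five library-drug doses (not always all listed) in √10 steps, then fixed, stained and imaged at 4× after 5 days.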

[2] = compound: Cc1ccc2nc(NCCN)c3ncc(C)n3c2c1 + O=C(c1cc(Cc2n[nH]c(=O)c3ccccc23)ccc1F)N1CCN(C(=O)C2CC2)CC1 [Olaparib] (partner 8 µM)
How it was run: as §1

Salubrinal + Bortezomib = compound: O=C(/C=C/c1ccccc1)NC(NC(=S)Nc1cccc2cccnc12)C(Cl)(Cl)Cl [Salubrinal] + CC(C)C[C@H](NC(=O)[C@H](Cc1ccccc1)NC(=O)c1cnccn1)B(O)O [Bortezomib] (partner 0.002 µM)
How it was run: as §1

Salubrinal + Linsitinib = compound: O=C(/C=C/c1ccccc1)NC(NC(=S)Nc1cccc2cccnc12)C(Cl)(Cl)Cl [Salubrinal] + C[C@]1(O)C[C@@H](c2nc(-c3ccc4ccc(-c5ccccc5)nc4c3)c3c(N)nccn32)C1 [Linsitinib] (partner 1 µM)
How it was run: as §1

Row | Cell Line | relative viability ([1]; first compound 0.04 µM) | relative viability ([1]; first compound 0.1265 µM) | relative viability ([1]; first compound 0.4 µM) | relative viability ([1]; first compound 1.265 µM) | relative viability ([1]; first compound 4 µM) | relative viability ([2]; first compound 0.04 µM) | relative viability ([2]; first compound 0.1265 µM) | relative viability ([2]; first compound 0.4 µM) | relative viability ([2]; first compound 1.265 µM) | relative viability ([2]; first compound 4 µM) | relative viability (Salubrinal + Bortezomib; first compound 0.08 µM) | relative viability (Salubrinal + Bortezomib; first compound 0.253 µM) | relative viability (Salubrinal + Bortezomib; first compound 0.8 µM) | relative viability (Salubrinal + Bortezomib; first compound 2.53 µM) | relative viability (Salubrinal + Bortezomib; first compound 8 µM) | relative viability (Salubrinal + Linsitinib; first compound 0.08 µM) | relative viability (Salubrinal + Linsitinib; first compound 0.253 µM) | relative viability (Salubrinal + Linsitinib; first compound 0.8 µM) | relative viability (Salubrinal + Linsitinib; first compound 2.53 µM) | relative viability (Salubrinal + Linsitinib; first compound 8 µM)
1 | NCI-H596 | 0.56 | 0.46 | 0.446 | 0.491 | 0.452 | 0.77 | 0.857 | 0.771 | 0.637 | 0.715 | 1.1 | 0.807 | 1.01 | 1.13 | 1 | 1.07 | 0.936 | 1.17 | 1.1 | 0.903
2 | NCI-H322M | 0.948 | 0.755 | 0.798 | 0.641 | 0.766 | 0.698 | 0.816 | 0.881 | 0.796 | 0.638 | 1.33 | 1.15 | 1.26 | 1.22 | 1.19 | 1.1 | 0.858 | 0.927 | 0.891 | 0.823
3 | NCI-H1299 | 1.03 | 1.1 | 1.05 | 1.08 | 0.993 | 0.973 | 0.965 | 0.985 | 0.891 | 0.767 | 1.05 | 0.971 | 1.02 | 1.02 | 1.02 | 0.964 | 0.876 | 1.09 | 1 | 0.96
4 | NCI-H2228 | 0.626 | 0.639 | 0.974 | 0.832 | 0.613 | 0.721 | 0.692 | 0.614 | 0.65 | 0.633 | 1.08 | 1.18 | 1.26 | 0.983 | 0.876 | 0.768 | 0.813 | 0.791 | 0.581 | 0.629
5 | IA-LM | 0.762 | 0.738 | 0.682 | 0.913 | 0.804 | 0.73 | 0.793 | 0.974 | 0.795 | 0.721 | 1.01 | 0.874 | 0.895 | 0.68 | 0.758 | 0.256 | 0.472 | 0.704 | 0.519 | 1.09
6 | NCI-H647 | 1.05 | 1.01 | 1.06 | 1.26 | 1 | 0.602 | 0.492 | 0.517 | 0.642 | 0.268 | 1.05 | 1.37 | 1.2 | 1.06 | 0.792 | 1.26 | 1.26 | 1.48 | 1.07 | 1.27
7 | NCI-H2085 | 1.01 | 0.943 | 0.961 | 1.06 | 1.11 | 0.813 | 0.752 | 0.836 | 0.803 | 0.791 | 1.07 | 0.877 | 1.04 | 1.03 | 1.05 | 1.03 | 0.754 | 0.896 | 0.787 | 0.868
8 | SW 1573 | 0.81 | 0.667 | 0.871 | 0.572 | 0.676 | 0.519 | 0.404 | 0.504 | 0.42 | 0.177 | 1.36 | 0.779 | 1.27 | 0.834 | 0.982 | 0.903 | 0.759 | 0.718 | 0.792 | 0.844
9 | NCI-H727 | 0.54 | 0.618 | 0.62 | 0.599 | 0.471 | 0.561 |  | 0.731 | 0.785 | 0.709 | 0.748 | 0.504 | 0.983 | 0.862 | 0.741 | 0.347 | 0.33 | 0.323 | 0.326 | 0.323
10 | NCI-H441 | 0.646 | 0.719 | 0.843 | 0.746 | 0.928 | 0.631 | 0.384 | 0.622 | 0.646 | 0.549 | 0.392 | 0.516 | 0.386 | 0.372 | 0.362 | 0.663 | 0.438 | 0.643 | 0.649 | 0.517
11 | LOU-NH91 | 0.739 | 0.736 | 0.735 | 0.674 | 0.696 | 0.921 | 0.92 | 0.877 | 0.868 | 0.865 | 0.481 | 0.406 | 0.55 | 0.505 | 0.477 | 1.02 | 0.949 | 0.996 | 0.955 | 0.93
12 | NCI-H3122 | 0.88 | 0.942 | 0.812 | 0.779 | 0.855 | 0.653 | 0.67 | 0.507 | 0.582 | 0.579 | 1 | 1.01 | 0.927 | 0.98 | 0.991 | 1.07 | 1.06 | 0.984 | 1.06 | 0.987
13 | NCI-H460 | 0.54 | 0.495 | 0.476 | 0.382 | 0.374 | 0.481 | 0.421 | 0.443 | 0.342 | 0.273 | 1.66 | 0.452 | 1.4 | 1.08 | 1.21 | 1.31 | 0.586 | 1 | 0.813 | 0.564
14 | NCI-H650 | 1.15 | 0.922 | 1.1 | 0.997 | 0.975 | 0.374 | 0.364 | 0.39 | 0.393 | 0.399 | 0.877 | 0.724 | 1.23 | 0.997 | 0.817 | 0.778 | 0.772 | 0.99 | 0.959 | 0.756
15 | NCI-H661 | 0.82 | 0.79 | 0.812 |  | 0.474 | 0.78 | 0.815 | 0.701 | 0.661 | 0.631 | 0.876 | 0.781 | 0.714 | 0.821 | 0.865 | 0.701 | 0.464 | 0.509 | 0.561 | 0.464
16 | NCI-H1734 | 0.699 | 0.634 | 0.668 | 0.605 | 0.685 | 0.666 | 0.617 | 0.658 | 0.321 | 0.553 | 0.9 | 0.941 | 1.11 | 0.969 | 0.981 | 0.931 | 0.858 | 1.02 | 0.976 | 0.826
17 | LXF-289 | 1.1 | 1.01 | 0.984 | 1.06 | 1.03 | 1.16 | 1.02 | 1.03 | 1.13 | 1.1 | 1.06 | 0.654 | 1.06 | 0.969 | 0.851 | 1.04 | 0.861 | 1.03 | 0.968 | 0.893
18 | H3255 | 0.77 | 0.613 | 0.705 | 0.659 | 0.593 | 0.561 | 0.482 | 0.516 | 0.59 | 0.47 | 0.816 | 0.826 | 1.23 | 0.767 | 0.761 | 0.982 | 0.905 | 1.2 | 1.04 | 0.974
19 | 201T | 1.03 | 1.01 | 1.02 | 1.05 | 1.02 | 0.945 | 0.839 | 0.804 | 0.829 | 0.823 | 1.14 | 1.06 | 1.14 | 1.09 | 1.11 | 1.04 | 0.982 | 1.09 | 1.07 | 0.97
20 | NCI-H2126 | 0.738 | 0.73 | 0.77 | 0.719 | 0.782 | 0.924 | 0.903 | 0.943 | 0.932 | 0.888 | 1.11 | 1.02 | 1.21 | 1.22 | 1.07 | 0.716 | 0.707 | 0.748 | 0.693 | 0.689
21 | HOP-62 | 0.981 | 0.946 | 0.942 | 0.667 | 0.975 | 0.286 | 0.457 | 0.436 | 0.417 | 0.42 | 0.392 | 0.576 | 0.601 | 0.874 | 1.04 | 1.07 | 0.918 | 1.1 | 0.977 | 0.998
22 | CAL-12T | 1.17 | 1.11 | 1.3 | 1.25 | 0.992 | 0.77 | 0.738 | 0.827 | 0.804 | 0.625 | 0.983 | 0.899 | 1.54 | 0.915 | 0.998 | 0.754 | 0.883 | 0.971 | 0.806 | 0.726
23 | NCI-H520 | 0.882 | 1.05 | 0.957 | 0.781 | 1.03 | 0.308 | 0.368 | 0.323 | 0.304 | 0.266 | 0.881 | 0.439 | 0.793 | 0.633 | 0.435 | 1.16 | 0.688 | 1.25 | 1.12 | 1.17
24 | NCI-H1755 | 0.978 | 0.928 | 0.898 | 0.962 | 0.908 | 0.859 | 0.878 | 0.835 | 0.903 | 0.791 | 1.06 | 0.968 | 1.05 | 1 | 0.945 | 1.05 | 0.869 | 1.03 | 1 | 0.947
25 | NCI-H2023 | 0.637 | 0.573 | 0.616 | 0.563 | 0.549 | 0.503 | 0.56 | 0.541 | 0.458 | 0.254 | 1.2 | 1.03 | 0.967 | 1.02 | 0.858 | 0.707 | 0.573 | 0.676 | 0.777 | 0.706
26 | NCI-H2009 | 1.23 | 1.17 | 1.16 | 1.19 | 1.05 | 0.666 | 0.661 | 0.666 | 0.71 | 0.549 | 1.07 | 1.05 | 1.01 | 1.01 | 0.771 | 1.16 | 1.17 | 1.28 | 1.2 | 1.14
